Laboratory results as given in ChEMBL document CHEMBL2094269, “WEHI/Eskitis Trypanosoma b. brucei screening data”.
Where “and” joins values, the source holds several entries; their conditions need not be identical. Identical values can stand only once.

Key:
[1] = (§1) DNDI: Cytotoxicity against human MRC-5 lung fibroblast cells.; conditions: IC50
[2] = system: Trypanosoma brucei brucei; assay: microbe, parasite or virus in culture; type: functional, organism-based, STIB 795
Description: DNDI: Inhibition of Human African Trypanosomiasis (HAT), STIB 795, in vitro

[3] = system: MRC5; assay: as §1
[4] = system: Trypanosoma cruzi; assay: DNDI: Inhibition of Chagas Disease parasite Trypanosoma cruzi (Tulahuen LacZ, Clone C4), in vitro.; type: functional, organism-based
[5] = DNDI: Cytotoxicity against L-6 rat myoblasts from skeletal muscle.; type: toxicity, cell-based, Muscle tissue, L6; conditions: L-6 rat skeletal muscle myoblast cells
[6] = system: Trypanosoma brucei rhodesiense; assay: DNDI: Inhibition of Human African Trypanosomiasis (HAT), STIB 900, in vitro; type: functional, organism-based
[7] = system: Leishmania donovani; assay: DNDI: Inhibition of formation of Leishmania donovani (strain MHOM/ET/67/L82) axenic amastigotes, in vitro.; type: functional, organism-based
[8] = system: Plasmodium falciparum; assay: DNDI: Inhibition of the malaria parasite Plasmodium falciparum, in vitro; type: functional, organism-based; conditions: K1

Row | Compound | IC50 [1] | IC50 ([2]; Trypanosoma brucei, STIB 795) | also measured
1 | CCN(CC)c1ccc(/C=C/C2=[N+](C)c3ccc(C(=O)OC)cc3C2(C)C)cc1 | 3.86 µM | 0.056 µM | 
2 | O=C(NCCc1csc(-c2ccc(F)cc2)n1)c1ccc(Br)o1 | > 41.7 µM | 4.66 µM | 
3 | COC(=O)c1ccc(C2N=C(c3cccs3)CC(c3ccccc3O)N2)cc1 (stereo not given) | > 41.7 µM | 5.51 µM | 
4 | CCOC(=O)CNC(=O)C(Cc1ccccc1)NS(=O)(=O)c1cccs1 (stereo not given) | > 41.7 µM | 5.51 µM | 
5 | CC(C)(C)OC(=O)N1CCC[C@H]1c1nnc(SCc2cccc(Cl)c2)o1 | 2.87 µM | 0.538 µM | 
6 | Cc1ccc2[nH]c3c(c2c1)CCCC3CN (stereo not given) | > 10.4 µM | 1.22 µM | IC50 [3]: > 20.8 µM; IC50 [2]: 0.664 µM
7 | COc1ccc(C(NC(=O)CC(C)C)c2ccc3cccnc3c2O)cc1OC (stereo not given) | 0.685 µM | 0.6 µM | 
8 | CCN1/C(=C/C(=C/c2sc3ccccc3[n+]2CC)OC)Sc2ccccc21 | 2.25 µM | 0.524 µM | 
9 | O=S(=O)(Nc1ccc(O)c(-c2c(O)ccc3ccccc23)c1)c1cccs1 | > 41.7 µM | 5 µM | 
10 | CN1CCN(c2nc(Nc3ccc(F)cc3)nc(Nc3ccc(F)cc3)n2)CC1 | > 41.7 µM | 5.11 µM | 
11 | CC(C)(C)C(=O)N1N=C(c2ccc(NS(C)(=O)=O)cc2)CC1c1ccco1 (stereo not given) | > 20.8 µM | 5.6 µM | 
12 | Cc1ccc(-c2cnc3ccccc3[n+]2C)c(C)c1 | > 20.8 µM |  | IC50 [3]: > 10.4 µM; IC50 [2]: 0.739 µM and 3.32 µM
13 | Cc1cc(=O)[nH]c(-n2nc(C)cc2NC(=O)C2CCCC2)n1 | > 10.4 µM | 0.435 µM | IC50 [4]: 4.5 µM; IC50 [5]: 0.265 µM; IC50 [6]: 1.42 µM; IC50 [7]: 0.143 µM; IC50 [8]: 2.39 µM
14 | CC(C)(C)C(=O)NCCc1csc(-c2cccc(F)c2)n1 | > 41.7 µM | 0.441 µM | IC50 [4]: 0.709 µM; IC50 [5]: 19.1 µM; IC50 [6]: 0.451 µM; IC50 [7]: 14.1 µM; IC50 [8]: 10.8 µM
15 | O=C(CCc1ccccc1)N/N=C/c1ccc(O)c2ncccc12 | > 10.4 µM | 0.484 µM | IC50 [3]: > 20.8 µM; IC50 [2]: 0.456 µM
16 | O=C(NCCc1n[nH]c(-c2ccc(F)cc2)n1)c1cccc(F)c1 | > 41.7 µM | 1.93 µM | IC50 [4]: 6.35 µM; IC50 [5]: 39.2 µM; IC50 [6]: 2.22 µM; IC50 [7]: 15.5 µM; IC50 [8]: 7.85 µM
17 | COc1ccc2[nH]c(C)c(CCNCCC3=C(C)CCCC3(C)C)c2c1 | 5.93 µM | 1.33 µM | IC50 [3]: 4.92 µM; IC50 [2]: 1.76 µM
18 | CC1=NN(c2cccc(Cl)c2)C(=O)/C1=C\NNC(=O)c1ccccc1 | > 4.17 µM | 1.49 µM | IC50 [3]: 4.6 µM; IC50 [2]: 1.92 µM
19 | COc1ccc(C(NC(=O)C(C)C)c2ccc3cccnc3c2O)cc1OC (stereo not given) | 2.29 µM |  | IC50 [3]: > 4.17 µM; IC50 [2]: 2.78 µM and 1.08 µM
20 | CCc1ccccc1/N=C(\NCCN1CCOCC1)NC(=O)c1ccccc1 | > 41.7 µM | 0.681 µM | IC50 [4]: 31.2 µM; IC50 [5]: 50.3 µM; IC50 [6]: 0.333 µM; IC50 [7]: 83.9 µM; IC50 [8]: 2.02 µM
21 | CCCN1C(=O)C(O)(CC(=O)c2cccnc2)c2cc(Br)ccc21 (stereo not given) | > 41.7 µM | 0.617 µM | 
22 | N#C/C(=C\c1cccn1-c1ccc(S(N)(=O)=O)cc1)c1nc2ccccc2[nH]1 | > 41.7 µM | 4.99 µM | 
23 | CCCCCOc1ccc(NC(=O)C(=O)NC2CC(C)(C)NC(C)(C)C2)cc1 | > 41.7 µM | 4.86 µM | 
24 | Cc1ccc(Cn2cc(CCC(=O)NCCN3CCCC3)c3ccccc32)cc1 | > 20.8 µM | 3.3 µM | 
25 | COc1ccc(/C(N)=N/OC(=O)c2cc(OC)c(OC)cc2OC)cc1OC | > 41.7 µM | 0.798 µM | 

Row | Compound | IC50 [1] | IC50 ([2]; Trypanosoma brucei, STIB 795) | also measured
26 | CN(C)S(=O)(=O)c1ccc(C(=O)Nc2nnc(-c3ccc(F)cc3)o2)cc1 | > 41.7 µM | 4.94 µM | 
27 | COc1ccccc1C(NC(=O)C1CCCCC1)c1ccc2cccnc2c1O (stereo not given) | > 41.7 µM | 10.9 µM | 
28 | CC1(C)CC(=O)c2sc(NC(=O)c3sc4ccccc4c3Cl)nc2C1 | > 41.7 µM | 0.442 µM | 
29 | CCOC(=O)c1ccc(NC(=O)Cn2c(C(F)(F)F)nc3ccccc32)cc1 | > 41.7 µM | 6.08 µM | IC50 [2]: 7.85 µM
30 | COc1ccccc1C(=O)Nc1ccccc1Sc1cc(C)nc2ncnn12 | > 41.7 µM | 4.02 µM | 
31 | COc1ccccc1C1N=C(c2ccc(Cl)cc2)CC(c2ccccc2O)N1 (stereo not given) | > 41.7 µM | 5.24 µM | 
32 | CN1CCC(=NNC(=O)c2cc(-c3ccc(Cl)cc3)nc3ccccc23)CC1 | > 41.7 µM | 5.52 µM | 
33 | O=c1ccccc2c(/C=C/c3cccc(Cl)c3Cl)nn(-c3ccccc3)c12 | > 10.4 µM | 5.34 µM | 
34 | CC(=O)NC1=C(N2CCN(C(=O)c3ccco3)CC2)C(=O)c2ccccc2C1=O | > 41.7 µM | 5.41 µM | IC50 [2]: 5.36 µM
35 | Cc1nc2ncnn2c(Sc2ccccc2NC(=O)c2cccc(F)c2)c1C | > 20.8 µM | 1.66 µM | 
36 | O=C(CC(Sc1cccc2cccnc12)c1ccc(F)cc1)c1cccs1 (stereo not given) | > 20.8 µM | 0.516 µM | 
37 | COc1ccc(C2=NC3(CCN(C(C)C)CC3)NC(c3ccccc3O)C2)cc1 (stereo not given) | > 20.8 µM | 1.37 µM | 
38 | CCN1/C(=C/C=C/c2sc3c(C)cccc3[n+]2CC)Sc2c(C)cccc21 | > 20.8 µM | 0.501 µM | 
39 | O=C(Nc1ccc(Cl)cc1)O/N=C(/c1ccc(Cl)cc1)N1CCOCC1 | > 41.7 µM | 4.31 µM | 
40 | CCCn1c(=N)n(CC(O)COc2ccc(Cl)cc2Cl)c2ccccc21 (stereo not given) | 8.79 µM | 1.94 µM | 
41 | Cc1ccc([N+]2=C3SCCCN3C(O)(c3ccc(Cl)cc3Cl)C2)cc1 (stereo not given) | > 4.17 µM | 5.21 µM | 
42 | CC1CCN(C(c2cc(C(C)(C)C)c(O)c(C(C)(C)C)c2)c2ccccn2)CC1 (stereo not given) | > 41.7 µM | 5.7 µM | 
43 | Oc1c(C(Nc2ccccn2)c2ccc(C(F)(F)F)cc2)ccc2cccnc12 (stereo not given) | > 41.7 µM | 3.26 µM | 
44 | CCc1cccc(-n2nnnc2N2CCN(C(=O)Nc3ccc(F)cc3)CC2)c1 | > 41.7 µM | 4.16 µM | 
45 | CCc1cc(Sc2ccccc2NC(=O)C2CCCCC2)n2nc(C)nc2n1 | > 41.7 µM | 5.22 µM | 
46 | CC(C)(C)c1cc(C(c2ccccc2O)N2CCCCC2)cc(C(C)(C)C)c1O (stereo not given) | > 41.7 µM | 3.39 µM | IC50 [2]: 4.51 µM
47 | Cc1cccc(C)c1C(OCC1CN(C(C)C)C(C)(C)O1)c1c(C)cccc1C (stereo not given) | > 20.8 µM | 4.93 µM | 
48 | C/C(=N\NC(=O)c1cccc(I)c1)c1ccc(O)cc1O | 3.73 µM | 1.92 µM | 
49 | CCCCNCc1cc(Br)c(OCc2ccc(F)cc2)c(OC)c1 | > 41.7 µM | 4 µM | 
50 | C=CCc1cccc(/C=N/NC(=O)c2cc(-c3ccc4ccccc4c3)n[nH]2)c1O | > 41.7 µM | 3 µM | 

Row | Compound | IC50 [1] | IC50 ([2]; Trypanosoma brucei, STIB 795) | also measured
51 | CC(C)=C1C2CCC1C1C(=O)N(NC(=O)C(C)Oc3ccc(C)c(C)c3)C(=O)C21 (stereo not given) | > 41.7 µM | 5.39 µM | 
52 | COc1ccc(-n2nc(N3CCCC(C(=O)NC4CCCC4)C3)ccc2=O)cc1 (stereo not given) | > 41.7 µM | 2.28 µM | 
53 | CCCc1cc(=O)[nH]c(-n2nc(C)cc2NC(=O)c2ccc(OC)c(OC)c2)n1 | > 41.7 µM | 5.28 µM | 
54 | COCC(=O)N/N=C/c1ccc(SCC(=O)Nc2ccc3ccccc3c2)o1 | > 41.7 µM | 6.86 µM | 
55 | CCOC(=O)c1ccc(NC(=O)C2CCCN(C(=O)c3ccccc3F)C2)cc1 (stereo not given) | > 20.8 µM | 56.3 µM | 
56 | COC(=O)c1c(SCC(=O)Nc2cccc(OC)c2)[nH]c2ccccc2c1=O | > 20.8 µM | 4.55 µM | 
57 | CCS(=O)(=O)N1CCCc2ccc(NS(=O)(=O)c3ccccc3F)cc21 | > 41.7 µM | 1.3 µM | IC50 [4]: 5.87 µM; IC50 [5]: 8.64 µM; IC50 [6]: 5.81 µM; IC50 [7]: 2.63 µM; IC50 [8]: 5.02 µM
58 | CCn1c(SCC(=O)N/N=C(\C)c2ccc(O)c(OC)c2)nc2ccccc21 | > 41.7 µM | 5.06 µM | 
59 | CCN(CC)c1ccc(C(Nc2ccccn2)c2ccc3cccnc3c2O)cc1 (stereo not given) | > 20.8 µM | 8.71 µM | 
60 | Cc1ccsc1/C=C(\C(=O)NCc1cccnc1)S(=O)(=O)c1ccccc1 | > 20.8 µM | 5.29 µM | 
61 | COc1cc(-n2nnn(C3CC(=O)C4OCC3O4)c2=S)c(OC)cc1Cl (stereo not given) | > 20.8 µM |  | IC50 [2]: > 10.4 µM and 4.74 µM
62 | N=C(N)N/N=C(/C=C(\c1ccc(Cl)cc1)n1ccnc1)c1ccc(Cl)cc1 | > 10.4 µM | 3 µM | 
63 | CCC(=O)N(CC(CC(C)C)N1CCN(C)CC1)c1ccc(C2CCCC2)cc1 (stereo not given) | > 41.7 µM | 4.79 µM | 
64 | N=c1n(CCOc2ccccc2)c2ccccc2n1CCN1CCCCC1 | > 20.8 µM |  | IC50 [2]: 2.98 µM and > 10.4 µM
65 | CN(C)CCn1c(=N)n(CC(O)c2ccc(Cl)c(Cl)c2)c2ccccc21 (stereo not given) | > 4.17 µM | 1.07 µM | 
66 | O=C(NC(c1ccc2c(c1)OCO2)c1ccc2cccnc2c1O)c1ccccc1 (stereo not given) | > 4.17 µM | 4.91 µM | 
67 | C[N+](C)(C)c1nc(N2CCOCC2)nc(N(c2ccccc2)c2ccccc2)n1 | > 41.7 µM | 2.51 µM | 
68 | COCc1cc(CN2CCN(c3ccccc3OC)CC2)c(O)c2ncccc12 | 1.58 µM | 2.31 µM | 
69 | CCCC(=O)NC(c1ccccc1Cl)c1cc(Cl)c2cccnc2c1O (stereo not given) | > 20.8 µM | 1.58 µM | 
70 | CNC1=C(N(C(C)=O)c2ccc(Br)cc2)C(=O)c2ccccc2C1=O | 4.88 µM | 0.515 µM | 
71 | Cn1c(=N)n(CC(=O)c2cc(C(C)(C)C)c(O)c(C(C)(C)C)c2)c2ccccc21 | > 20.8 µM | 4.57 µM | IC50 [2]: 2.62 µM
72 | CN(C)c1ccc2nc3ccc(=[N+](C)C)cc-3sc2c1 [METHYLENE BLUE CATION] | > 2.08 µM | < 0.02 µM | 
73 | Cc1ccc2ccc3ccc(C)nc3c2n1 [NEOCUPROINE] | > 20.8 µM | 0.557 µM | 
